Several values for one entry are separate records, joined by “and”; a condition that tells them apart may be missing. Equal entries are not always repeated. Toxic doses and inconclusive results are not listed.
System: L1210 leukemia ip in BDF1 mice, survival T/C
Assay: NCI In Vivo Anticancer Drug Screen. Data for tumor model L1210 Leukemia (intraperitoneal) in B6D2F1 (BDF1) mice
Settings: endpoint: mean survival time, higher = longer survival
How it was run: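 Tumor cells were implanted, animals were treated, and survival was followed. The result divides the treated measurement by the vehicle-control measurement.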

[1] = dose: 100.0 mg/kg/injection, schedule: Q04DX003 (ip), vehicle: saline with Tween-80
[2] = dose: 200.0 mg/kg/injection, schedule: Q04DX003 (ip), vehicle: saline with Tween-80
[3] = dose: 400.0 mg/kg/injection, schedule: Q04DX003 (ip), vehicle: saline with Tween-80
[4] = dose: 100.0 mg/kg/injection, schedule: Q04DX002 (ip), vehicle: Klucel (hydroxypropylcellulose) (HPC)
[5] = dose: 200.0 mg/kg/injection, schedule: Q04DX002 (ip), vehicle: Klucel (hydroxypropylcellulose) (HPC)
[6] = dose: 400.0 mg/kg/injection, schedule: Q04DX002 (ip), vehicle: Klucel (hydroxypropylcellulose) (HPC)
[7] = dose: 100.0 mg/kg/injection, schedule: Q01DX001 (ip), vehicle: saline
[8] = dose: 200.0 mg/kg/injection, schedule: Q01DX001 (ip), vehicle: saline
[9] = dose: 400.0 mg/kg/injection, schedule: Q01DX001 (ip), vehicle: saline
[10] = dose: 100.0 mg/kg/injection, schedule: Q01DX001 (ip), vehicle: carboxymethylcellulose (CMC)
[11] = dose: 200.0 mg/kg/injection, schedule: Q01DX001 (ip), vehicle: carboxymethylcellulose (CMC)
[12] = dose: 400.0 mg/kg/injection, schedule: Q01DX001 (ip), vehicle: carboxymethylcellulose (CMC)
[13] = dose: 100.0 mg/kg/injection, schedule: Q01DX009 (ip), vehicle: Klucel (hydroxypropylcellulose) (HPC)
[14] = dose: 200.0 mg/kg/injection, schedule: Q01DX009 (ip), vehicle: Klucel (hydroxypropylcellulose) (HPC)

## Cn1c2nc3ccccc3c-2nc2ccccc21
[1]
  T/C: 91 % of control
[2]
  T/C: 94 % of control
[3]
  T/C: 86 % of control

## CC(C)=NNC(=O)CNc1cccc(C(F)(F)F)c1
[4]
  T/C: 107 % of control
[5]
  T/C: 110 % of control
[6]
  T/C: 100 % of control

## CCOC(=O)C(C(=O)CC(C)C)C(C)C (stereo not drawn)
dose: 50.0 mg/kg/injection, schedule: Q01DX001 (ip), vehicle: saline
  T/C: 103 % of control
[7]
  T/C: 103 % of control
[8]
  T/C: 109 % of control
[9]
  T/C: 101 % of control

## NC(N)=N/N=C/Cc1ccccc1
dose: 62.5 mg/kg/injection, schedule: Q01DX Z (ip), vehicle: saline
  T/C: 94 % of control

## O=C1c2ccccc2CCCC1Br (stereo not drawn)
[10]
  T/C: 95 % of control
[11]
  T/C: 87 % of control
[12]
  T/C: 92 % of control

## COC(=O)C1C2C(C)=CC(O)(CC2(C)C)C1C(=O)OC (stereo not drawn)
[7]
  T/C: 95 % of control
[8]
  T/C: 95 % of control
[9]
  T/C: 101 % of control

## CCCCCCCCC(=O)N(CC(C)C)CC(C)C
[10]
  T/C: 93 % of control
dose: 100.0 mg/kg/injection, schedule: Q01DX009 (ip), vehicle: carboxymethylcellulose (CMC)
  T/C: 101 % of control
dose: 100.0 mg/kg/injection, schedule: Q04DX002 (ip), vehicle: carboxymethylcellulose (CMC)
  T/C: 94 % of control
dose: 100.0 mg/kg/injection, schedule: Q04DX003 (ip), vehicle: carboxymethylcellulose (CMC)
  T/C: 101 % of control
[11]
  T/C: 91 % of control
dose: 200.0 mg/kg/injection, schedule: Q01DX009 (ip), vehicle: carboxymethylcellulose (CMC)
  T/C: 101 % of control and 106 % of control
dose: 200.0 mg/kg/injection, schedule: Q04DX002 (ip), vehicle: carboxymethylcellulose (CMC)
  T/C: 102 % of control
dose: 200.0 mg/kg/injection, schedule: Q04DX003 (ip), vehicle: carboxymethylcellulose (CMC)
  T/C: 101 % of control
[12]
  T/C: 93 % of control
dose: 400.0 mg/kg/injection, schedule: Q04DX002 (ip), vehicle: carboxymethylcellulose (CMC)
  T/C: 97 % of control
dose: 400.0 mg/kg/injection, schedule: Q04DX003 (ip), vehicle: carboxymethylcellulose (CMC)
  T/C: 104 % of control

## O=C(NCCN1CCCC1)NC1CCCCC1
[13]
  T/C: 101 % of control
[14]
  T/C: 98 % of control

## COC(=O)C1C=C2c3cccc4[nH]cc(c34)CC2N(C#N)C1 (stereo not drawn)
dose: 25.0 mg/kg/injection, schedule: Q04DX003 (ip), vehicle: alcohol
  T/C: 91 % of control
dose: 50.0 mg/kg/injection, schedule: Q04DX003 (ip), vehicle: alcohol
  T/C: 100 % of control
dose: 100.0 mg/kg/injection, schedule: Q04DX003 (ip), vehicle: alcohol
  T/C: 96 % of control
dose: 200.0 mg/kg/injection, schedule: Q04DX003 (ip), vehicle: alcohol
  T/C: 93 % of control
dose: 400.0 mg/kg/injection, schedule: Q04DX003 (ip), vehicle: alcohol
  T/C: 94 % of control

## CC(C)C12CCC(C)(O1)C(O)C2O (stereo not drawn)
[7]
  T/C: 111 % of control
[8]
  T/C: 104 % of control
[9]
  T/C: 106 % of control

## N=c1ncn(C2OC(COP(=O)(O)O)C(O)C2O)c2nc[nH]c12 (stereo not drawn)
dose: 1.56 mg/kg/injection, schedule: Q01DX005 (ip), vehicle: water
  T/C: 102 % of control
dose: 6.25 mg/kg/injection, schedule: Q01DX005 (ip), vehicle: water
  T/C: 103 % of control
dose: 12.5 mg/kg/injection, schedule: Q01DX005 (ip), vehicle: water
  T/C: 105 % of control
dose: 25.0 mg/kg/injection, schedule: Q01DX005 (ip), vehicle: water
  T/C: 94 % of control

## O=C1C(c2c[nH]c3ccc(Br)cc23)=Nc2ccc([N+](=O)[O-])cc21
[8]
  T/C: 96 % of control
[9]
  T/C: 93 % of control

## O=C(O)/C=C/c1cccc(O)c1
[13]
  T/C: 98 % of control
dose: 100.0 mg/kg/injection, schedule: Q04DX003 (ip), vehicle: Klucel (hydroxypropylcellulose) (HPC)
  T/C: 92 % of control
[14]
  T/C: 102 % of control
dose: 200.0 mg/kg/injection, schedule: Q04DX003 (ip), vehicle: Klucel (hydroxypropylcellulose) (HPC)
  T/C: 97 % of control
dose: 400.0 mg/kg/injection, schedule: Q01DX009 (ip), vehicle: Klucel (hydroxypropylcellulose) (HPC)
  T/C: 97 % of control
dose: 400.0 mg/kg/injection, schedule: Q04DX003 (ip), vehicle: Klucel (hydroxypropylcellulose) (HPC)
  T/C: 98 % of control

## O=S1(=O)CC(Cl)(Br)C1 (tested in a mixture with another compound)
[4]
  T/C: 94 % of control
[5]
  T/C: 97 % of control
[6]
  T/C: 89 % of control

## CC[CH2][Sn]([CH2]CC)([CH2]CC)[O]C(=O)C(Cl)(Cl)Cl
dose: 0.39 mg/kg/injection, schedule: Q01DX009 (ip), vehicle: saline with Tween-80
  T/C: 87 % of control
dose: 0.78 mg/kg/injection, schedule: Q01DX009 (ip), vehicle: saline with Tween-80
  T/C: 98 % of control
dose: 1.56 mg/kg/injection, schedule: Q01DX009 (ip), vehicle: saline with Tween-80
  T/C: 91 % of control

## O=C(NCCCl)NC1CCCCC1
dose: 100.0 mg/kg/injection, schedule: Q01DX001 (ip), vehicle: Klucel (hydroxypropylcellulose) (HPC)
  T/C: 88 % of control
dose: 200.0 mg/kg/injection, schedule: Q01DX001 (ip), vehicle: Klucel (hydroxypropylcellulose) (HPC)
  T/C: 89 % of control
dose: 400.0 mg/kg/injection, schedule: Q01DX001 (ip), vehicle: Klucel (hydroxypropylcellulose) (HPC)
  T/C: 100 % of control

## CCn1c2ccccc2c2cc(NC(C)=O)ccc21
[1]
  T/C: 103 % of control
[2]
  T/C: 98 % of control
[3]
  T/C: 101 % of control

## COc1ccc(NC(=O)N(CCCl)N=O)cc1
dose: 0.12 mg/kg/injection, schedule: Q01DX Z (ip), vehicle: carboxymethylcellulose (CMC)
  T/C: 112 % of control
dose: 1.25 mg/kg/injection, schedule: Q01DX Z (ip), vehicle: carboxymethylcellulose (CMC)
  T/C: 123 % of control
dose: 4.4 mg/kg/injection, schedule: Q01DX015 (ip), vehicle: saline
  T/C: 200 % of control
dose: 4.4 mg/kg/injection, schedule: Q01DX Z (ip), vehicle: carboxymethylcellulose (CMC)
  T/C: 192 % of control
dose: 5.0 mg/kg/injection, schedule: Q01DX Z (ip), vehicle: carboxymethylcellulose (CMC)
  T/C: 160 % of control
dose: 6.6 mg/kg/injection, schedule: Q01DX015 (ip), vehicle: saline
  T/C: 224 % of control
dose: 6.6 mg/kg/injection, schedule: Q01DX Z (ip), vehicle: carboxymethylcellulose (CMC)
  T/C: 222 % of control
dose: 9.9 mg/kg/injection, schedule: Q01DX001 (ip), vehicle: carboxymethylcellulose (CMC)
  T/C: 160 % of control
dose: 10.0 mg/kg/injection, schedule: Q01DX015 (ip), vehicle: saline
  T/C: 196 % of control
dose: 10.0 mg/kg/injection, schedule: Q01DX Z (ip), vehicle: carboxymethylcellulose (CMC)
  T/C: 187 % of control
dose: 15.0 mg/kg/injection, schedule: Q01DX015 (ip), vehicle: saline
  T/C: 195 % of control
dose: 15.0 mg/kg/injection, schedule: Q01DX Z (ip), vehicle: carboxymethylcellulose (CMC)
  T/C: 120 % of control
dose: 19.8 mg/kg/injection, schedule: Q01DX001 (ip), vehicle: carboxymethylcellulose (CMC)
  T/C: 166 % of control
dose: 20.0 mg/kg/injection, schedule: Q01DX Z (ip), vehicle: carboxymethylcellulose (CMC)
  T/C: 93 % of control
dose: 39.6 mg/kg/injection, schedule: Q01DX001 (ip), vehicle: carboxymethylcellulose (CMC)
  T/C: 206 % of control
dose: 60.0 mg/kg/injection, schedule: Q01DX001 (ip), vehicle: saline
  T/C: 158 % of control
dose: 79.2 mg/kg/injection, schedule: Q01DX001 (ip), vehicle: carboxymethylcellulose (CMC)
  T/C: 105 % of control
dose: 120.0 mg/kg/injection, schedule: Q01DX001 (ip), vehicle: saline
  T/C: 111 % of control
dose: 240.0 mg/kg/injection, schedule: Q01DX001 (ip), vehicle: saline
  T/C: 156 % of control

## CCc1nc(N(C)CC(=O)O)nc(CC)c1-c1ccccc1O
dose: 50.0 mg/kg/injection, schedule: Q04DX002 (ip), vehicle: Klucel (hydroxypropylcellulose) (HPC)
  T/C: 111 % of control
[4]
  T/C: 101 % of control and 86 % of control
[5]
  T/C: 104 % of control
[6]
  T/C: 86 % of control

## O=C(O)CNc1ccc(S(=O)(=O)c2ccc(NCC(=O)O)cc2)cc1
[7]
  T/C: 102 % of control
[8]
  T/C: 102 % of control
[9]
  T/C: 98 % of control

Reference: PubChem BioAssay AID248 (DTP/NCI, 2004)
